This note sets out measurements from patent US20120220488A1, “HEART AGING BIOMARKERS AND METHODS OF USE” (priority 2009, published 2012).

Common to all, as to assay type: in vivo
Assay [1] has as its system Akt1. The assay can be described thus: Microarray gene expression in heart tissue, Study 2. The following applies: Study 2, mouse heart tissue, old (30) + Resveratrol vs old; probe 1425711_a_at. The text has this: (§1) Two public rodent cardiac aging gene expression data sets were selected from the NCBI's Gene Expression Omnibus (GEO): (1) The University of Washington's rat study (UW) (Linford J L et al. (2007) Transcriptional Response to Aging and Calorie Restriction in Heart and Adipose Tissue. Aging Cell 6: 673-688)) (Study 1); and (2) LifeGen's mouse study (Barger J L et al. (2008) A Low Dose of Dietary Resveratrol partially Mimics Calorie Restriction and Retards Aging Parameters in Mice. PLoS ONE 3(6): 1-10) (Study 2). Materials and methods for the two studies are shown in the references. A third data set came from an unpublished mouse cardiac aging study. In that study, mice were divided into two groups (n=7) and were fed with control diet according to the proceedings in the Barger study. Mice were sacrificed at the ages of 5 months (young group) and 25 months (old group). Heart tissues were collected and subject to microarray gene expression assays (Study 3). In Study 2 and Study 3, Affymetrix mouse genome 430 2.0 gene chips were used. In Study 1, Affymetrix rat genome 230 2.0 gene chips were used. A description of the three studies is outlined in Table 1.
(§2) Data were first inspected for quality and examined for possible outliers. Three samples, one from each Study, were identified as outliers and were removed from further analysis. Differential genes were identified between young and old groups in each Study using Significance Analysis of Microarrays (SAM) algorithm (Tusher, Tibshirani and Chu (2001) Significance analysis of microarrays applied to the ionizing radiation response. PNAS 2001 98: 5116-5121). The selection criteria include magnitude of expression change (fold>=1.2) and false discovery rate (FDR<0.5%).
(§3) Genes in the Wnt pathway were further examined for their expressional changes. […] Those genes/proteins are listed in Table 2, along with respective representative GenBank Accession Numbers, and the Study 2 results are shown in Table 3. The expression of these genes was also examined in the calorie restricted (CR) group and resveratrol (“Resv”) group.

Assay [2] relates to Camk2d. Described as above. The following applies: Study 2, mouse heart tissue, old (30) + Resveratrol vs old; probe 1427763_a_at.
From the text: as §1, §2, §3

Assay [3] relates to Ccnd1. The assay is described as above. As to conditions: Study 2, mouse heart tissue, old (30) + Resveratrol vs old; probe 1448698_at.
From the text: as §1, §2, §3

Assay [4] concerns Dab2. The description is as above. The following applies: Study 2, mouse heart tissue, old (30) + Resveratrol vs old; probe 1430604_a_at.
From the text: as §1, §2, §3

The subject of assay [5] is Dlgh1. Described as above. The following applies: Study 2, mouse heart tissue, old (30) + Resveratrol vs old; probe 1450768_at.
From the text: as §1, §2, §3

Assay [6] has as its system Magi3. The assay is described as above. The following applies: Study 2, mouse heart tissue, old (30) + Resveratrol vs old; probe 1421035_a_at.
From the text: as §1, §2, §3

The subject of assay [7] is Mapk1. The assay is described as above. The following applies: Study 2, mouse heart tissue, old (30) + Resveratrol vs old; probe 1426585_s_at.
From the text: as §1, §2, §3

Assay [8] deals with Mark2. Described as above. As to conditions: Study 2, mouse heart tissue, old (30) + Resveratrol vs old; probe 1435889_at.
From the text: as §1, §2, §3

Assay [9] has as its system Pias4. Described as above. As to conditions: Study 2, mouse heart tissue, old (30) + Resveratrol vs old; probe 1455394_at.
From the text: as §1, §2, §3

The test system of assay [10] is Rac1. The assay is described as above. As to conditions: Study 2, mouse heart tissue, old (30) + Resveratrol vs old; probe 1423734_at.
From the text: as §1, §2, §3

Assay [11] concerns Senp2. Described as above. As to conditions: Study 2, mouse heart tissue, old (30) + Resveratrol vs old; probe 1425465_a_at.
From the text: as §1, §2, §3

In assay [12] the test system is Smad3. The description is as above. The following applies: Study 2, mouse heart tissue, old (30) + Resveratrol vs old; probe 1450471_at.
From the text: as §1, §2, §3

In assay [13] the test system is Ctnnb1 (beta-catenin). Described as above. As to conditions: Study 2, mouse heart tissue, old (30) + Resveratrol vs old; for Fold Change Resv vs. Old, Ctnnb1(1): Ctnnb1 probe 1.
From the text: as §1, §2
Genes in the Wnt pathway were further examined for their expressional changes. […] Those genes/proteins are listed in Table 2, along with respective representative GenBank Accession Numbers, and the Study 2 results are shown in Table 3. The expression of these genes was also examined in the calorie restricted (CR) group and resveratrol (“Resv”) group. […]

Assay [14] relates to Wnt pathway genes. The assay can be described thus: Wnt pathway gene expression in aged heart, Study 2. The following applies: Study 2, mouse aged heart; all but three of the genes of Table 2/3.
From the text: as §1, with “Mice were sacrificed at the ages of 5 months (young group) and 25 months (old group). Heart tissues were collected and subject to microarray gene expression assays (Study 3). In Study 2 and Study 3, Affymetrix mouse genome 430 2.0 gene chips were used. In Study 1, Affymetrix rat genome 230 2.0 gene chips were used. A description of the three studies is outlined in Table 1.” left out
To determine the impact of gene expression changes in the systems level, pathway analysis was conducted on the data sets from Study 2 and Study 3 using GenMAPP and MAPPFinder software (Salomonis, K Hanspers, A C Zambon, K Vranizan, S C Lawlor, K D Dahlquist, S W Doniger, J Stuart, B R Conklin, and A R Pico. GenMAPP 2: new features and resources for pathway analysis. BMC Bioinformatics, June 2007; 8: 217). […] The inventors determined that the Wnt signaling pathway was among those with most significant associations (adjusted p value of 0.011 in both the Study 2 and Study 3 data sets). […]

Take `Oc1ccc(C=Cc2cc(O)cc(O)c2)cc1` [Resv, resveratrol]: the “Fold Change Resv vs. Old, Akt1” value in [1] is recorded as −1.315 fold. For the same compound, in assay [2], the “Fold Change Resv vs. Old, Camk2d” value came out at 1.235 fold. For the same compound, the “Fold Change Resv vs. Old, Ccnd1” value in assay [3] was −1.158 fold. Also, the “Fold Change Resv vs. Old, Dab2” value in assay [4] was found to be 1.227 fold. The “Fold Change Resv vs. Old, Dlgh1” value in assay [5] came to 1.150 fold. Also, the “Fold Change Resv vs. Old, Magi3” value in assay [6] was 1.244 fold. The “Fold Change Resv vs. Old, Mapk1” value in [7] was −1.020 fold. Further, the “Fold Change Resv vs. Old, Mark2” value in assay [8] is reported as −2.113 fold. In assay [9], the “Fold Change Resv vs. Old, Pias4” value is reported as −1.495 fold. Also, the “Fold Change Resv vs. Old, Rac1” value in [10] is given as 1.509 fold. Besides, the “Fold Change Resv vs. Old, Senp2” value in assay [11] came out at 1.261 fold. Also, the “Fold Change Resv vs. Old, Smad3” value in assay [12] worked out at 1.285 fold. Besides, the “Fold Change Resv vs. Old, Ctnnb1(1)” value in [13] is on record as 2.787 fold; in [13] (listed as Resveratrol), 2.79 fold. Also, in assay [13] (Ctnnb1 probe 2), the “Fold Change Resv vs. Old, Ctnnb1(2)” value was found to be 2.017 fold. In addition, in assay [14], the “Expression of Wnt pathway genes decreased in aged heart, after treatment” value is recorded as “elevated to their young levels”.
